Legend:
Test in all cases: NCI In Vitro Cell Line Screening (SRB)
[1] = tested on: HL-60(TB); type: cell-based, human; conditions: Leukemia, 48 h; for GI50: Homo sapiens
[2] = tested on: HOP-62; type: cell-based, human; conditions: HOP-62, Non-Small Cell Lung Cancer, 48 h
[3] = tested on: NCI-H23; type: cell-based; conditions: NCI-H23, Non-Small Cell Lung Cancer, 48 h
[4] = tested on: NCI-H460; type: cell-based, human; conditions: NCI-H460, Non-Small Cell Lung Cancer, 48 h; for GI50 / CC50: Homo sapiens; for CC50: read-out: LC50 (the source's name)
[5] = tested on: NCI-H522; type: cell-based, human; conditions: NCI-H522, Non-Small Cell Lung Cancer, 48 h
[6] = tested on: KM12; type: cell-based, human; conditions: KM12, Colon Cancer, 48 h; for GI50 / CC50: Homo sapiens; for CC50: read-out: LC50 (the source's name)
[7] = tested on: SF-268; type: cell-based, human; conditions: SF-268, CNS Cancer, 48 h; for GI50 / LC50: Homo sapiens
[8] = tested on: SF-295; type: cell-based, human; conditions: SF-295, CNS Cancer, 48 h; for GI50 / CC50: Homo sapiens; for CC50: read-out: LC50 (the source's name)
[9] = tested on: LOX IMVI; type: cell-based, human; conditions: Melanoma, 48 h; for GI50 / LC50: Homo sapiens
[10] = tested on: MALME-3M; type: cell-based, human; conditions: Melanoma, 48 h; for GI50 / CC50: Homo sapiens; for CC50: read-out: LC50 (the source's name)
[11] = tested on: M14; type: cell-based, human; conditions: M14, Melanoma, 48 h; for GI50 / CC50: Homo sapiens; for CC50: read-out: LC50 (the source's name)
[12] = tested on: SK-MEL-28; type: cell-based, human; conditions: SK-MEL-28, Melanoma, 48 h; for GI50 / CC50: Homo sapiens; for CC50: read-out: LC50 (the source's name)
[13] = tested on: OVCAR-5; type: cell-based, human; conditions: OVCAR-5, Ovarian Cancer, 48 h; for GI50 / CC50: Homo sapiens; for CC50: read-out: LC50 (the source's name)
[14] = tested on: DU-145; type: cell-based, human; conditions: DU-145, Prostate Cancer, 48 h; for GI50 / CC50: Homo sapiens; for CC50: read-out: LC50 (the source's name)
[15] = tested on: MCF7; type: cell-based, human; conditions: MCF7, Breast Cancer, 48 h; for GI50 / CC50: Homo sapiens; for CC50: read-out: LC50 (the source's name)
[16] = tested on: NCI/ADR-RES; type: cell-based, human; conditions: Breast Cancer, 48 h; for GI50 / CC50: Homo sapiens; for CC50: read-out: LC50 (the source's name)
[17] = tested on: HS 578T; type: cell-based, human; conditions: Breast Cancer, 48 h; for GI50 / CC50: Homo sapiens; for CC50: read-out: LC50 (the source's name)
[18] = tested on: MDA-MB-435; type: cell-based, human; conditions: MDA-MB-435, Breast Cancer, 48 h; for GI50 / CC50: Homo sapiens; for CC50: read-out: LC50 (the source's name)
[19] = tested on: OVCAR-3; conditions: for GI50 / CC50: Homo sapiens, OVCAR-3, 48 h; for CC50: read-out: LC50; for TGI: OVCAR-3, Ovarian Cancer, 48 h

CC(C)(C)c1ccc(NC(=O)[C@H](CCCCN)NC(=O)OCC2c3ccccc3-c3ccccc32)cc1 [Compound 105, (S)-[5-AMINO-1-(4-TERT-BUTYL-PHENYLCARBAMOYL)-PENTYL]-CARBAMIC ACID 9H-FLUOREN-9-YLMETHYL ESTER] gave a GI50 [1] of 1.54 µM, a TGI [1] of 3.47 µM and a TGI [2] of 3.87 µM. For the same compound, the GI50 ([2]; Homo sapiens) was 2.18 µM, the CC50 ([2]; Homo sapiens, read-out: LC50 (the source's name)) was 6.85 µM and the LC50 (concentration giving 50% net cell kill) ([3]; Homo sapiens) was 5.47 µM. It also gave a TGI [3] of 1.95 µM, a GI50 [4] of 1.13 µM and a CC50 [4] of 5.37 µM. For the same compound, the TGI [4] was 2.47 µM, the GI50 ([5]; Homo sapiens) was 2.1 µM and the TGI [5] was 4.43 µM. For the same compound, the GI50 [6] was 14.8 µM, the CC50 [6] was 55.7 µM and the TGI [6] was 28.7 µM. For the same compound, the GI50 [7] was 17 µM, the LC50 [7] was 58.3 µM and the TGI [7] was 31.5 µM. For the same compound, the GI50 [8] was 3.74 µM, the CC50 [8] was 65.3 µM and the TGI [8] was 19.0 µM. For the same compound, the GI50 [9] was 1.81 µM, the LC50 [9] was 6.42 µM and the TGI [9] was 3.41 µM. For the same compound, the GI50 [10] was 15.6 µM, the CC50 [10] was 89.5 µM and the TGI [10] was 37.4 µM. For the same compound, the GI50 [11] was 1.77 µM, the CC50 [11] was 6.55 µM and the TGI [11] was 3.40 µM. The GI50 [12] was 12.3 µM, the CC50 [12] was 50.2 µM and the TGI [12] was 24.8 µM. It also gave a GI50 [13] of 1.85 µM, a CC50 [13] of 6.5 µM and a TGI [13] of 3.46 µM. It also gave a TGI [14] of 31.2 µM, a GI50 [14] of 15.8 µM and a CC50 [14] of 61.6 µM. The GI50 [15] was 0.546 µM, the CC50 [15] was 4.75 µM and the TGI [15] was 1.91 µM. For the same compound, the TGI [16] was 1.1 µM, the GI50 [16] was < 0.01 µM and the CC50 [16] was 30.5 µM. The TGI [17] was 16.7 µM, the GI50 [17] was 2.93 µM and the CC50 [17] was 48.7 µM. The GI50 [18] was 4.27 µM, the CC50 [18] was 87.1 µM and the TGI [18] was 21.7 µM. The GI50 [19] was 16.1 µM, the CC50 [19] was 56.3 µM and the TGI [19] was 30.1 µM.

For Cc1ccc(NC(=O)[C@@H](CCCCN)NC(=O)Nc2ccc3c(c2)Cc2ccccc2-3)cc1 [Compound 173, (R)-6-AMINO-2-[3-(9H-FLUOREN-2-YL)-UREIDO]-HEXANOIC ACID P-TOLYLAMIDE], the GI50 [1] was 1.77 µM, the TGI [1] was 3.79 µM and the TGI [2] was 3.79 µM. For the same compound, the GI50 ([2]; Homo sapiens) was 1.88 µM, the GI50 ([3]; Homo sapiens) was 3.45 µM and the LC50 (concentration giving 50% net cell kill) ([3]; Homo sapiens) was > 100 µM. For the same compound, the TGI [3] was 19.6 µM, the GI50 [4] was 1.86 µM and the CC50 [4] was 6.33 µM. For the same compound, the TGI [4] was 3.43 µM, the GI50 ([5]; Homo sapiens) was 4.15 µM and the LC50 ([5]; Homo sapiens) was > 100 µM. For the same compound, the TGI [5] was 23.5 µM, the GI50 [6] was 1.31 µM and the CC50 [6] was 5.07 µM. The TGI [6] was 2.57 µM, the GI50 [7] was 7.37 µM and the LC50 [7] was 51 µM. The TGI [7] was 21.8 µM, the GI50 [8] was 0.341 µM and the CC50 [8] was 5.17 µM. For the same compound, the TGI [8] was 2.07 µM, the GI50 [9] was 1.4 µM and the LC50 [9] was 5.2 µM. For the same compound, the TGI [9] was 2.70 µM, the GI50 [10] was 1.55 µM and the CC50 [10] was 8.23 µM. The TGI [10] was 3.57 µM, the GI50 [11] was 3.43 µM and the CC50 [11] was > 100 µM. It also gave a TGI [11] of 11.4 µM, a GI50 [12] of 1.43 µM and a CC50 [12] of 5.43 µM. For the same compound, the TGI [12] was 2.79 µM, the GI50 [13] was 1.92 µM and the CC50 [13] was 6.57 µM. The TGI [13] was 3.55 µM, the TGI [14] was 20.0 µM and the GI50 [14] was 6.94 µM. The CC50 [14] was 46.3 µM, the GI50 [15] was 1.45 µM and the CC50 [15] was 5.29 µM. For the same compound, the TGI [15] was 2.77 µM, the TGI [16] was >100 µM and the GI50 [16] was > 100 µM. The CC50 [16] was > 100 µM, the TGI [17] was 4.77 µM and the GI50 [17] was 1.64 µM. The CC50 [17] was 32.7 µM, the GI50 [18] was 1.98 µM and the CC50 [18] was 24.3 µM. The TGI [18] was 6.21 µM, the GI50 [19] was 1.31 µM and the CC50 [19] was 31.6 µM. For the same compound, the TGI [19] was 9.94 µM.
